This is an account of results in patent US20060165987A1, “Stealthy polymeric biodegradable nanospheres and uses thereof” (priority 2002, published 2006).

Structures are written as SMILES. Where only a bound is given, the exact number is not on record here.

The nature of data set [1]: In vitro Rhodamine release (dialysis bag, phosphate buffer). It counts as physicochemical. Particulars: 37° C. Here is the method: The in vitro Rhodamine release profiles from the (-PLA-PEG-PLA-)n multiblock NS were determined as follows: NS were precisely weighed and suspended in 10 ml of phosphate buffer solution. The NS suspension was introduced into a dialysis membrane bag (Spectra/por™, Molecular weight cut off: 2000-4000, Spectrum Medical Industries, Inc., CA, USA) that was placed in 150 ml of phosphate buffer. This solution was stirred at 37° C. At pre-determined time intervals, 3 ml aliquots of the release medium were withdrawn from the release medium. The release of Rhodamine was monitored using a spectrofluorometer at an excitation wavelength of […] and emission wavelength of 554 nm. The sample was replaced in the release medium. The samples were analyzed by fluorescence since sensitivity will be needed for the incoming blood samples analysis.

The conditions of data set [2]: lifetime of free rhodamine; cited from earlier work.
Data set [3] is described as follows: Organ distribution by fluorescence microscopy. It counts as in vivo. Particulars: rats, after IV injection of nanospheres containing rhodamine, image analysis. Here is the method:
0.5 ml was taken at each time step. Plasma levels of rhodamine were measured by fluorescence detection. […] Organs were examined by fluorescence microscopy.

For `CCN(CC)c1ccc2c(-c3ccccc3C(=O)O)c3ccc(=[N+](CC)CC)cc-3oc2c1` [Rhodamine, Rhodamine B], the time of release in data set [1] is on record as not above 30 min. The “t1/2 in the body” value in data set [2] was 3 h. Also, the “Rhodamine accumulation in the organs” value in data set [3] was “No Rhodamine accumulation”.
